The assay addresses T1, IP receptor (Homo sapiens, UniProt P43119).
T1 construct: expressed in transfected cells; host or cells: CHO cells stably expressing the IP receptor (CHO-IP)
The assay is described as follows: cAMP accumulation in CHO cells stably expressing the IP receptor (CHO-IP), PerkinElmer AlphaScreen assay. To be noted: 1 hour at room temperature, 4-parameter logistic fit. It counts as cell-based. As to the method:
Activity of compounds at the IP receptor (IP receptor) is assessed by measuring cAMP accumulation in CHO cells stably expressing the IP receptor (CHO-IP) using the PerkinElmer AlphaScreen assay. This technology measures the endogenous production of cAMP, in a non-radioactive luminescence proximity homogenous assay. A biological reaction occurs between streptavidin coated donor beads, biotinylated cAMP and anti-cAMP acceptor beads, bringing the donor and acceptor beads close enough together so that upon excitation a fluorescence signal is produced. On production of endogenous cAMP, competition between the biotinylated cAMP and cellular-derived cAMP causes a reduction in the fluorescent signal. The reduction in signal is proportional to the amount of cAMP being produced, thus it is possible to quantify the amount of cAMP being produced on stimulation with agonist.
Test and reference compounds are prepared at 100×[final] in 100% DMSO, and diluted 1:3 using a Biomek Fx (Beckman Coulter). This is followed by an intermediate dilution to give 5×[final] in assay buffer (HBSS containing 5 mM HEPES, 0.1% (w/v) BSA). 5 μL of 5×[final] test compounds, reference compounds and buffer/DMSO control are then transferred to a 384-well white OptiPlate, containing 20 μL CHO-IP cell suspension (15,000 cells/well, prepared from frozen), and plate is incubated at room temperature for 1 hour. A cAMP standard curve is constructed for each experiment (concentration range of 10000 nM to 0.001 nM, in assay buffer) and 25 μL of each concentration added to the last two columns of the assay plate. The incubation is terminated by the addition of lysis buffer (dH2O; 0.3% (v v^−1) Tween-20) containing 20 units mL^−1 streptavidin coated donor beads and biotinylated cAMP (pre-incubated for 30 minutes) and 20 units mL^−1 anti-cAMP acceptor beads, which are added to the lysis buffer just before addition to the assay plate. The assay plate is then incubated at room temperature in the dark, for 60 minutes with gentle shaking, and read on the Envision plate reader (Perkin Elmer).
The raw data of the reference compounds, test compounds and controls are converted into cAMP concentrations, using the cAMP standard curve, in GraphPadPrism (Graph Pad Software Inc). EC50 as well as maximal values of the agonist curves are determined using a 4-parameter logistic equation. The % maximum response values of all test compounds are determined using the top of the treprostinil concentration-response curve.
In general terms: Cyclic AMP is a second messenger, typically raised through Gs and lowered through Gi signalling.
T1 sequence (P43119 whole entry): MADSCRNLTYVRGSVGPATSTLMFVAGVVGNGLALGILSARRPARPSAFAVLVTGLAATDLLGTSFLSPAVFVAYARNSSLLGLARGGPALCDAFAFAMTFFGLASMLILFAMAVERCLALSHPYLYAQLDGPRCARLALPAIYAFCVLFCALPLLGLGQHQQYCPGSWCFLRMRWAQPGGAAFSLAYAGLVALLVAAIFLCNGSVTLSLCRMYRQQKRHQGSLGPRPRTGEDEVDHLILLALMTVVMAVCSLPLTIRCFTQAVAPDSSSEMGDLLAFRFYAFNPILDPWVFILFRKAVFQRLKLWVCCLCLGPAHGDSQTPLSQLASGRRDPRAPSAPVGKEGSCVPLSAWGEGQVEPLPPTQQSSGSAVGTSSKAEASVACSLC
As a reminder, the EC50 is the concentration needed to bring the measured effect to its halfway point. A lower EC50 goes with higher potency in that assay. Turning to `CC1c2nc(-c3ccccc3)c(-c3ccccc3)nc2CCN1CCCCCCC(=O)O` (single isomer, unassigned) [Example 1(ii), (R)-7-(5-methyl-2,3-diphenyl-7,8-dihydropyrido[3,4-b]pyrazin-6(5H)-yl)heptanoic acid or (S)-7-(5-methyl-2,3-diphenyl-7,8-dihydropyrido[3,4-b]pyrazin-6(5H)-yl)heptanoic acid], the EC50 is 710 nM.

Consider `CC1c2nc(-c3ccccc3)c(-c3ccccc3)nc2CCN1CCCCCCC(=O)O` (racemic) [Example 1, rac-7-(5-methyl-2,3-diphenyl-7,8-dihydropyrido[3,4-b]pyrazin-6(5H)-yl)heptanoic acid], for which the EC50 was 275 nM. The compound `Cc1ccc(-c2nc3c(nc2-c2ccc(C)cc2)C(CCCCCC(=O)O)NCC3)cc1` (racemic) [Example 2, rac-6-(2,3-Dip-tolyl-5,6,7,8-tetrahydropyrido[3,4-b]pyrazin-5-yl)hexanoic acid] registered an EC50 of 5 nM.

Turning to `Cc1ccc(-c2nc3c(nc2-c2ccc(C)cc2)C(C)N(CCCCC(=O)O)CC3)cc1` (stereo not drawn) [Example 1.1, 5-(5-Methyl-2,3-di-p-tolyl-7,8-dihydro-5H-pyrido[3,4-b]pyrazin-6-yl)-pentanoic acid], it took 1.5 nM to reach a half-maximal effect (EC50).

As for `Cc1ccc(-c2nc3c(nc2-c2ccc(C)cc2)C(CCCCCCC(=O)O)N(C)CC3)cc1` (stereo not drawn) [Example 3, 7-(6-Methyl-2,3-dip-tolyl-5,6,7,8-tetrahydropyrido[3,4-b]pyrazin-5-yl)heptanoic acid], the EC50 turned out to be 2.3 nM.

For the compound `Cc1ccc(-c2nc3c(nc2-c2ccc(C)cc2)C(CCCCCC(=O)O)N(C)CC3)cc1` (racemic) [Example 3.1, rac-6-(6-Methyl-2,3-dip-tolyl-5,6,7,8-tetrahydropyrido[3,4-b]pyrazin-5-yl)hexanoic acid], it took 25.9 nM to reach a half-maximal effect (EC50).

Compound `Cc1ccc(-c2nc3c(nc2-c2ccc(C)cc2)C(C)N(CCCCCC(=O)O)CC3)cc1` (stereo not drawn) [Example 1.2, 6-(5-Methyl-2,3-di-p-tolyl-7,8-dihydro-5H-pyrido[3,4-b]pyrazin-6-yl)-hexanoic acid] showed an EC50 of 2 nM. In turn, `Cc1ccc(-c2nc3c(nc2-c2ccc(C)cc2)C(CCCCCCC(=O)O)NCC3)cc1` (racemic) [Example 2.1, rac-7-(2,3-Dip-tolyl-5,6,7,8-tetrahydropyrido[3,4-b]pyrazin-5-yl)heptanoic acid] registered an EC50 of 5.4 nM.

The compound `CC1c2nc(-c3ccccc3)c(-c3ccccc3)nc2CCN1CCCCCCC(=O)O` (single isomer, unassigned) [Example 1(i), (R)-7-(5-methyl-2,3-diphenyl-7,8-dihydropyrido[3,4-b]pyrazin-6(5H)-yl)heptanoic acid or (S)-7-(5-methyl-2,3-diphenyl-7,8-dihydropyrido[3,4-b]pyrazin-6(5H)-yl)heptanoic acid] yielded an EC50 of 190 nM.

The values above are taken from patent publication US20140378463A1, “IP receptor agonist heterocyclic compounds” (NOVARTIS AG, priority 2012, published 2014).
